# From BindingDB's records for doi:10.1021/acs.jmedchem.1c00779 (Hong Kong Polytechnic University, 2021)
# Tests used:
# [1] = Inhibition of BCRP (unknown origin) transfected in HEK293/R2 cells assessed as reversal of topotecan resistance after 5 days by MTS/PMS assay
# [2] = Inhibition of BCRP (unknown origin) expressed in MCF7/MX100 cells assessed as reversal of topotecan resistance after 5 days by MTS/PMS assay
# [3] = Inhibition of P-gp (unknown origin) expressed in human LCC6MDR cells assessed as reversal of paclitaxel resistance after 5 days by MTS/PMS assay
# [4] = Inhibition of MRP1 (unknown origin) expressed in human 2008/MRP1 cells assessed as reversal of doxorubicin resistance after 5 days by MTS/PMS assay
# [5] = Inhibition of P-gp (unknown origin) expressed in human LCC6MDR cells assessed as reversal of mitoxantrone resistance after 5 days by MTS/PMS assay
# [6] = Inhibition of BCRP (unknown origin) expressed in human HEK293/R2 cells assessed as reversal of mitoxantrone resistance after 5 days by MTS/PMS assay
# [7] = Inhibition of MRP1 (unknown origin) expressed in human 2008/MRP1 cells assessed as reversal of mitoxantrone resistance after 5 days by MTS/PMS assay
SMILES,EC50 [1],further results
COC(=O)c1cccc(COc2c(-c3ccc(OCCOCCn4cc(-c5cccc(-c6cn(CCOCCOc7ccc(-c8oc9ccccc9c(=O)c8OCc8cccc(C(=O)OC)c8)cc7)nn6)c5)nn4)cc3)oc3ccccc3c2=O)c1,2.5 nM,–
C#CCCCOc1ccc(-c2cc(=O)c3ccccc3o2)cc1,> 1000 nM,–
C#CCCCOc1ccc2c(=O)cc(-c3ccccc3)oc2c1,> 1000 nM,–
C#CCCCOc1ccc(-c2cc(=O)c3ccc(F)cc3o2)cc1,325 nM,–
C#CCCCOc1ccc(-c2cc(=O)c3c(OCc4ccccc4)cc(OCOC)cc3o2)cc1,201 nM,–
C#CCCCOc1ccc(-c2cc(=O)c3cc(C)ccc3o2)cc1,> 1000 nM,–
C#CCCCCOc1ccc(/C=C/C(=O)c2ccccc2O)cc1,> 1000 nM,–
C#CCCCCOc1ccc(/C=C/C(=O)c2cc(CC)ccc2O)cc1,> 1000 nM,–
C#CCCCCOc1ccc(/C=C/C(=O)c2cc(C)ccc2O)cc1,> 1000 nM,–
C#CCCCCOc1ccc(/C=C/C(=O)c2ccc(C)cc2O)cc1,> 1000 nM,–
C#CCCCCOc1ccc(/C=C/C(=O)c2ccc(F)cc2O)cc1,> 1000 nM,–
C#CCCCOc1ccc(-c2nc3ccccc3c(=O)[nH]2)cc1,> 1000 nM,–
C#CCCCCOc1ccc2c(=O)cc(-c3ccccc3)oc2c1,> 1000 nM,–
C#CCOCCOc1ccc2c(=O)cc(-c3ccccc3)oc2c1,> 1000 nM,–
C#CCN(CCOc1ccc2c(=O)cc(-c3ccccc3)oc2c1)Cc1ccccc1,> 1000 nM,–
C#CCN(CC#C)CC#C,> 1000 nM,–
C#CCCN1C(=O)c2ccccc2C1=O,> 1000 nM,–
C#CCN(Cc1ccccc1)Cc1ccccc1,> 1000 nM,–
C#CCNc1ccccc1,> 1000 nM,–
C#CCCCCOc1ccc(-c2oc3ccccc3c(=O)c2OCc2cccc(C(=O)OC)c2)cc1,44 nM,EC50 [2]: 34 nM; EC50 [3]: 821 nM; EC50 [4]: > 1000 nM
C#CCCCCOc1ccc(C=O)cc1,> 1000 nM,–
C#CCCCCOc1ccc(-c2oc3ccccc3c(=O)c2OCc2cccc(OC)c2)cc1,261 nM,–
C#CCCCCOc1ccc(-c2cc(=O)c3cc(F)ccc3o2)cc1,240 nM,–
C#CCCCOc1ccc(-c2cc(=O)c3cc(F)ccc3o2)cc1,417 nM,–
O=c1cc(-c2ccccc2)oc2cc(OCCNCc3ccccc3)ccc12,> 1000 nM,–

SMILES,EC50 [1],further results
COC(=O)c1cccc(COc2c(-c3ccc(OCCOCCN=[N+]=[N-])cc3)oc3ccccc3c2=O)c1,–,EC50 [2]: 50 nM; EC50 [3]: > 1000 nM; EC50 [4]: > 1000 nM
COC(=O)c1cccc(COc2c(-c3ccc(OCCOCCOCCN=[N+]=[N-])cc3)oc3ccccc3c2=O)c1,–,EC50 [2]: 17 nM; EC50 [3]: 298 nM; EC50 [4]: > 1000 nM
COC(=O)c1cccc(COc2c(-c3ccc(OCCCCc4cn(CCOCCO)nn4)cc3)oc3ccccc3c2=O)c1,10 nM,EC50 [2]: 27 nM; EC50 [3]: 606 nM; EC50 [4]: > 1000 nM
COC(=O)c1cccc(COc2c(-c3ccc(OCCCCc4cn(Cc5ccccc5)nn4)cc3)oc3ccccc3c2=O)c1,7 nM,EC50 [2]: 6 nM; EC50 [3]: 670 nM; EC50 [5]: 673 nM; EC50 [4]: > 1000 nM; EC50 [6]: 13 nM; EC50 [7]: 886 nM
COC(=O)c1cccc(COc2c(-c3ccc(OCCOCCn4cc(CN(C)Cc5ccccc5)nn4)cc3)oc3ccccc3c2=O)c1,15 nM,EC50 [2]: 3.5 nM; EC50 [3]: > 1000 nM; EC50 [5]: 644 nM; EC50 [4]: > 1000 nM; EC50 [6]: 17 nM; EC50 [7]: 681 nM
COC(=O)c1cccc(COc2c(-c3ccc(OCCOCCn4cc(CCN5C(=O)c6ccccc6C5=O)nn4)cc3)oc3ccccc3c2=O)c1,46 nM,EC50 [2]: 97 nM; EC50 [3]: > 1000 nM; EC50 [4]: > 1000 nM
COC(=O)c1cccc(COc2c(-c3ccc(OCCOCCn4cc(CN(Cc5ccccc5)Cc5ccccc5)nn4)cc3)oc3ccccc3c2=O)c1,32 nM,EC50 [2]: 30 nM; EC50 [3]: > 1000 nM; EC50 [4]: > 1000 nM
COC(=O)c1cccc(COc2c(-c3ccc(OCCOCCn4cc(CNc5ccccc5)nn4)cc3)oc3ccccc3c2=O)c1,26 nM,EC50 [2]: 44 nM; EC50 [3]: > 1000 nM; EC50 [4]: > 1000 nM
COC(=O)c1cccc(COc2c(-c3ccc(OCCOCCOCCn4cc(CN(C)Cc5ccccc5)nn4)cc3)oc3ccccc3c2=O)c1,16 nM,EC50 [2]: 28 nM; EC50 [3]: 830 nM; EC50 [4]: > 1000 nM
COC(=O)c1cccc(COc2c(-c3ccc(OCCOCCOCCn4cc(CCN5C(=O)c6ccccc6C5=O)nn4)cc3)oc3ccccc3c2=O)c1,160 nM,EC50 [3]: > 1000 nM; EC50 [4]: > 1000 nM
COC(=O)c1cccc(COc2c(-c3ccc(OCCOCCOCCn4cc(CCCCOc5ccc(C=O)cc5)nn4)cc3)oc3ccccc3c2=O)c1,19 nM,EC50 [2]: 38 nM; EC50 [3]: > 1000 nM; EC50 [4]: 865 nM
COC(=O)c1cccc(COc2c(-c3ccc(OCCOCCOCCn4cc(CN(CCO)Cc5ccccc5)nn4)cc3)oc3ccccc3c2=O)c1,1.4 nM,EC50 [2]: 1.6 nM; EC50 [3]: 309 nM; EC50 [5]: 817 nM; EC50 [4]: > 1000 nM; EC50 [6]: 165 nM; EC50 [7]: 592 nM
[N-]=[N+]=NCCOCCOc1ccc(-c2cc(=O)c3ccccc3o2)cc1,365 nM,–
[N-]=[N+]=NCCOCCOCCOc1ccc(-c2cc(=O)c3ccccc3o2)cc1,363 nM,–
Cc1ccc2oc(-c3ccc(OCCOCCOCCN=[N+]=[N-])cc3)cc(=O)c2c1,750 nM,–
[N-]=[N+]=NCCOCCOCCOc1ccc(-c2oc3ccccc3c(=O)c2OCc2ccccc2)cc1,52 nM,–
[N-]=[N+]=NCCOCCOc1ccc(-c2cc(=O)c3cc(F)ccc3o2)cc1,840 nM,–
[N-]=[N+]=NCCOCCOc1ccc(-c2oc3ccccc3c(=O)c2OCc2ccccc2)cc1,45 nM,–
[N-]=[N+]=NCCOCCOc1ccc2c(=O)cc(-c3ccccc3)oc2c1,223 nM,–
[N-]=[N+]=NCCOCCOCCOc1ccc2c(=O)cc(-c3ccccc3)oc2c1,177 nM,–
[N-]=[N+]=NCCOc1ccc2c(=O)cc(-c3ccccc3)oc2c1,213 nM,–
[N-]=[N+]=NCCOCCO,> 1000 nM,–
COc1cccc(COc2c(-c3ccc(OCCOCCN=[N+]=[N-])cc3)oc3ccccc3c2=O)c1,76 nM,–
[N-]=[N+]=NCCOCCOc1cccc(-c2oc3ccccc3c(=O)c2OCc2ccccc2)c1,169 nM,–
C#CCN(C)Cc1ccccc1 [N-benzyl-N-methylprop-2-yn-1-amine],> 1000 nM,–
